In patent US20230137021A1, “Drug Conjugates of Sugar Derivatives and Uses Thereof as Senolytic Agents” (Rubedo Life Sciences, Inc., priority 2021, published 2023):
Where two headings read alike, the source gives them in different places.

Assays:
Type in all cases: cell-based
[1] = test system: T47D breast cancer cells, sgNTC; assay: CRISPR-engineered cancer cell line viability assay (XTT), T47D sgNTC; details: T47D cells with Cas9 and sgNTC, treated for three days, absolute IC50 at Y=0.5 viability, read-out: T47/D sgNTC
Description: (§1) T47D and HCC1954 breast cancer cells were cultured in RPMI 1640 medium containing 10% heat inactivated fetal bovine serum. Cell lines were infected with lentiviral construct(s) containing S. pyogenes Cas9 and sgRNA(s) targeting the gene(s) of interest. Infected cells were selected by antibiotic treatment. To assess cell viability in response to compound treatment, cells were seeded into 96-well plates. The next day, serial dilutions covering 10 concentrations of compound were added to the cells. Cells were treated for three days. Cell viability was determined by mitochondrial dehydrogenase activity (XTT assay, Cayman Chemical). To generate dose-response curves, data was fitted to a four-parameter Hill function and the absolute IC50 was determined at Y=0.5 viability.

[2] = test system: T47D breast cancer cells, sgFUCA1; assay: CRISPR-engineered cancer cell line viability assay (XTT), T47D/sgFUCA1; details: T47D cells with Cas9 and sgFUCA1, treated for three days, absolute IC50 at Y=0.5 viability
Description: as §1

[3] = test system: senescent IMR90 primary lung fibroblasts; assay: Cytotoxicity assay (XTT), senescent IMR90 cells; details: incubated with drug for 72 hours, read-out: IMR90 SEN
Description: Proliferating and senescent cells were maintained in T175 flasks under the conditions specified below, passaging upon reaching ˜90% confluency. Prior to use in cytotoxicity assays, cells were visually inspected under phase microscopy for contamination and health; if either contamination or significant cell debris was noted, cells were not used. Healthy cells were plated into the middle 60 wells of 96-well plates at a concentration of either 5,000 or 10,000 cells/well (for proliferating and senescent conditions, respectively). The outer 36 wells in each plate contained DPBS to both prevent desiccation of the interior wells and edge effects upon spectrometry readings. […] The XTT reagent undergoes an absorbance shift upon reduction through an NAD(P)H-dependent metabolic reaction, and the resulting shift can be used to quantify the viability of the remaining cells after drug treatment. Absorbance readings for each test article were taken once a suitable dynamic range was achieved (generally 0.7-1.4 absorbance units). […]
IMR90 primary lung fibroblasts were thawed into DMEM (high glucose, 4 mM L-glutamine, no sodium pyruvate) supplemented with 10% heat-inactivated fetal bovine serum and 1% penicillin-streptomycin antibiotic cocktail. […] Following this rest period, senescence induction was assessed by morphology, SA-β-gal activity, and EdU incorporation. […]

senescent A549 cells = assay: Cytotoxicity assay (XTT), senescent A549 cells; details: A549 senescence induced with 25 μM gemcitabine, incubated with drug for 72 hours, read-out: A549 SEN
Description: Proliferating and senescent cells were maintained in T175 flasks under the conditions specified below, passaging upon reaching ˜90% confluency. Prior to use in cytotoxicity assays, cells were visually inspected under phase microscopy for contamination and health; if either contamination or significant cell debris was noted, cells were not used. Healthy cells were plated into the middle 60 wells of 96-well plates at a concentration of either 5,000 or 10,000 cells/well (for proliferating and senescent conditions, respectively). The outer 36 wells in each plate contained DPBS to both prevent desiccation of the interior wells and edge effects upon spectrometry readings. After seeding cells into the 96-well plates, they were given 24 hours to attach prior to drug addition. Drug was added in triplicate across 10 different concentrations, spanning roughly 4 Log 10 units. Plates were incubated with drug for 72 hours, at which point the drug-containing media was aspirated and replaced with XTT media. The XTT reagent undergoes an absorbance shift upon reduction through an NAD(P)H-dependent metabolic reaction, and the resulting shift can be used to quantify the viability of the remaining cells after drug treatment. Absorbance readings for each test article were taken once a suitable dynamic range was achieved (generally 0.7-1.4 absorbance units). The resulting data was then background corrected and logarithmized to produce concentration-response curves.
Wild type A549 cells were thawed into DMEM (high glucose, 4 mM L-glutamine, no sodium pyruvate) supplemented with 10% heat-inactivated fetal bovine serum and 1% penicillin-streptomycin antibiotic cocktail. Cells were cultured at 37 C, 5% CO2, and atmospheric oxygen. For senescence induction, only A549s at passage 20 or lower were used. Cells were grown to 60-70% confluency before aspirating media and replacing with fresh media containing 25 μM gemcitabine. Cells were cultured without refreshing media for 72 hours. After treatment, the drug-containing media was aspirated, cells were gently washed with 1×DPBS, and fresh, drug-free media was added to the flask, at which point the cells were allowed to rest for a further 72 hours. Following this rest period, senescence induction was assessed by morphology, SA-β-gal activity, and EdU incorporation. Note: senescence induction with gemcitabine can occasionally result in spontaneous re-entry into the cell cycle in A549s. For this reason, cells should be used in various assays within 14 days of induction to avoid outgrowth of non-senescent populations. In cytotoxicity assays, proliferating cells at passage 20 or younger were included as a comparator. […]

[4] = test system: T47D breast cancer cells, sgGLB sgGALC; assay: CRISPR-engineered cancer cell line viability assay (XTT), T47D/sgGLB sgGALC; details: Homo sapiens, 72 h, T47D cells with Cas9 and sgGLB sgGALC, treated for three days, absolute IC50 at Y=0.5 viability
Description: as §1

IC50 ([1]; Homo sapiens, 72 h) [µM] | IC50 ([2]; Homo sapiens, 72 h) [µM] | Compound | IC50 (senescent A549 cells; Homo sapiens) [µM] | other results
 |  | (2E)-N-{[(3aR,4S,7aS)-4-methyl-2-oxo-hexahydro-[1,3]dioxolo[4,5-c]pyran-6-yl]oxy}-3-[4-({[2-(2-methyl-1H-indol-3-yl)ethyl]amino}methyl)phenyl]prop-2-enamide [Compound 109] |  | IC50 [1]: 0.33 µM; IC50 [2]: 1.36 µM; IC50 ([3]; IMR90 senescence induced with 300 nM doxorubicin): 13.5 µM; IC50 (senescent A549 cells): 2.27 µM
 |  | C/C(=C\C=C\CNCCc1c(C)[nH]c2ccccc12)C/C=C/C(=O)NOC1O[C@H](CO)[C@H](F)[C@H](O)[C@H]1O (some centres unmarked) [Compound 126] | > 30 | 
0.0531 | 2.86 | CC(=O)O[C@H]1[C@H](C)O[C@@H](ONC(=O)/C=C/c2ccc(CN(CCc3c(C)[nH]c4ccccc34)C(=O)OCc3oc(=O)oc3C)cc2)C[C@@H]1OC(C)=O [Compound 105] |  | 
> 30 |  | Cc1[nH]c2ccccc2c1CCNCc1ccc(/C=C/C(=O)NO[C@@H]2O[C@H](CF)[C@H](O)[C@H](O)[C@H]2O)cc1 [Compound 122, (E)-N-[(2S,3R,4S,5R,6S)-6-(fluoromethyl)-3,4,5-trihydroxy-tetrahydropyran-2-yl]oxy-3-[4-[[2-(2-methyl-1H-indol-3-yl)ethylamino]methyl]phenyl]prop-2-enamide] |  | IC50 [4]: > 30 µM
0.0253 | 1.11 | CC(=O)O[C@H]1[C@H](C)O[C@@H](ONC(=O)/C=C/c2ccc(CNCCc3c(C)[nH]c4ccccc34)cc2)C[C@@H]1OC(C)=O [Compound 111] | 0.243 | IC50 ([3]; Homo sapiens, IMR-90, IMR90 senescence induced with 300 nM doxorubicin): 3.78 µM
0.0094 | 1.01 | CC(=O)O[C@@H]1[C@H](C)O[C@@H](ONC(=O)c2cnc(N3CCC(CNCc4cn(C)c5ccccc45)CC3)nc2)C[C@@H]1OC(C)=O [Compound 107, (2S,3R,4S,6S)-3-(acetyloxy)-2-methyl-6-[({2-[4-({[(1-methyl-1H-indol-3-yl)methyl]amino}methyl)piperidin-1-yl]pyrimidin-5-yl}formamido)oxy]oxan-4-yl acetate] |  | 
0.942 | 8.72 | C[C@@H]1O[C@@H](ONC(=O)c2cnc(N3CCC(CNCc4cn(C)c5ccccc45)CC3)nc2)C[C@H](O)[C@@H]1O [Compound 108, N-{[(2S,4S,5S,6S)-4,5-dihydroxy-6-methyloxan-2-yl]oxy}-2-[4-({[(1-methyl-1H-indol-3-yl)methyl]amino}methyl)piperidin-1-yl]pyrimidine-5-carboxamide] |  | 
 | 29.2 | Cc1[nH]c2ccccc2c1CCN(Cc1ccc(/C=C/C(=O)NO[C@H]2C[C@H](O)[C@@H](O)[C@H](C)O2)cc1)C(=O)OCc1oc(=O)oc1C [Compound 106] |  | 
9.86 |  | Cc1[nH]c2ccccc2c1CCNCc1ccc(/C=C/C(=O)NO[C@@H]2O[C@H](CO)C[C@H](O)[C@H]2O)cc1 [Compound 124, (E)-N-[(2S,3R,4S,6S)-3,4-dihydroxy-6-(hydroxymethyl)tetrahydropyran-2-yl]oxy-3-[4-[[2-(2-methyl-1H-indol-3-yl)ethylamino]methyl]phenyl]prop-2-enamide] | 67 | IC50 [4]: > 30 µM
0.822 | 16.4 | Cc1[nH]c2ccccc2c1CCNCc1ccc(/C=C/C(=O)NO[C@H]2C[C@H](O)[C@@H](O)[C@H](C)O2)cc1 [Compound 112] |  | 
